Source: patent US20250135006A1, “AMPHIPHILIC TLR7/8 ADJUVANTS AND USES THEREOF” (Pfizer Inc., priority 2023, published 2025)

Experiments:
S. pneumoniae serotype 3 = format: in vivo, female Swiss-Webster mice; conditions: mouse
[1] = target: T1, human toll like receptor 8 (hTLR8) (Homo sapiens, UniProt Q9NR97); test: hTLR8 in-vitro functional assay (HEK-Blue hTLR8 SEAP reporter); format: cell-based; conditions: HEK-Blue hTLR8 cells, overnight incubation
T1 construct: host or cells: HEK293 (HEK-Blue hTLR8)
T1 sequence (Q9NR97 27-1041): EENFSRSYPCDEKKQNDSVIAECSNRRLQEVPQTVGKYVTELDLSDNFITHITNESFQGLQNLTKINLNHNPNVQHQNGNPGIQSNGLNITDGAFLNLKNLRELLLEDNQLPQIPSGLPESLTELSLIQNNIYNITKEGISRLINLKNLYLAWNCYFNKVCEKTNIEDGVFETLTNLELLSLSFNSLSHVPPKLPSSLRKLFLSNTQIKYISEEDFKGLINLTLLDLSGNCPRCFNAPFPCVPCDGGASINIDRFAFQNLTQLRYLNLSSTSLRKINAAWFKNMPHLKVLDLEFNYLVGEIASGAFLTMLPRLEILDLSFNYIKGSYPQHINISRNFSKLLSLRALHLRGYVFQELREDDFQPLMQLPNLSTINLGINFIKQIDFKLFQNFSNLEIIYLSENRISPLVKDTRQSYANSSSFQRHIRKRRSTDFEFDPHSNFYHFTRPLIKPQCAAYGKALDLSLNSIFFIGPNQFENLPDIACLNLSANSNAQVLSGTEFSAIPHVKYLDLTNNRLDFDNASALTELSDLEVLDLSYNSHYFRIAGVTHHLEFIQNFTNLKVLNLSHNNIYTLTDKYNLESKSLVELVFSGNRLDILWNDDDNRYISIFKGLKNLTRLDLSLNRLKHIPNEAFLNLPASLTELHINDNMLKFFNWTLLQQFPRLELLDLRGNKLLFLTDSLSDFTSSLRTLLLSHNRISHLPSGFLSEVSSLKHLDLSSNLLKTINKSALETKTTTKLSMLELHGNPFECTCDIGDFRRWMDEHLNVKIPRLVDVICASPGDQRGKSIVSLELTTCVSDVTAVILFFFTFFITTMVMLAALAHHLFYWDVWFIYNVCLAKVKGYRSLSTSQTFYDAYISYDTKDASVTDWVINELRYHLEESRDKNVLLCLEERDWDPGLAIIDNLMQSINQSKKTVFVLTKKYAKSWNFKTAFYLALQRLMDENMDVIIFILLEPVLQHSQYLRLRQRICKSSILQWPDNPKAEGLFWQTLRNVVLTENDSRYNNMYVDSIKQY

RSV A strain (M37) = test: In vivo immunogenicity with RSV antigen, RSV microneutralization assay; parameters: species or system female BALB/c mice; conditions: 0.5 μg bivalent RSV antigen alone or mixed with 2 nmol adjuvant, intramuscular days 0 and 21, sera day 35
Experimental: In two independent in vivo immunogenicity studies, female BALB/c mice were immunized intramuscularly twice three weeks apart (days 0 and 21) with 0.5 μg of RSV antigen alone or mixed with 2 nmol of Example 1 adjuvant (Compound 1). Sera were collected at day 35 to determine RSV neutralization antibody titers (nAb). The RSV antigen tested was bivalent comprising a RSV F Protein of Subtype A comprising the sequence of SEQ ID NO: 1 and SEQ ID NO: 2, as well as a RSV F Protein of Subtype B comprising the sequence of SEQ ID NO: 3 and SEQ ID NO: 4.
50% nAb responses against RSV A strain (M37) were measured by an RSV microneutralization assay at 2 weeks post dose 2.

[2] = target: T2, human toll like receptor 7 (hTLR7) (Homo sapiens, UniProt Q9NYK1); test: hTLR7 in-vitro functional assay (HEK-Blue hTLR7 SEAP reporter); format: cell-based; conditions: HEK-Blue hTLR7 cells, overnight incubation
T2 construct: host or cells: HEK293 (HEK-Blue hTLR7)
T2 sequence (Q9NYK1 27-1049): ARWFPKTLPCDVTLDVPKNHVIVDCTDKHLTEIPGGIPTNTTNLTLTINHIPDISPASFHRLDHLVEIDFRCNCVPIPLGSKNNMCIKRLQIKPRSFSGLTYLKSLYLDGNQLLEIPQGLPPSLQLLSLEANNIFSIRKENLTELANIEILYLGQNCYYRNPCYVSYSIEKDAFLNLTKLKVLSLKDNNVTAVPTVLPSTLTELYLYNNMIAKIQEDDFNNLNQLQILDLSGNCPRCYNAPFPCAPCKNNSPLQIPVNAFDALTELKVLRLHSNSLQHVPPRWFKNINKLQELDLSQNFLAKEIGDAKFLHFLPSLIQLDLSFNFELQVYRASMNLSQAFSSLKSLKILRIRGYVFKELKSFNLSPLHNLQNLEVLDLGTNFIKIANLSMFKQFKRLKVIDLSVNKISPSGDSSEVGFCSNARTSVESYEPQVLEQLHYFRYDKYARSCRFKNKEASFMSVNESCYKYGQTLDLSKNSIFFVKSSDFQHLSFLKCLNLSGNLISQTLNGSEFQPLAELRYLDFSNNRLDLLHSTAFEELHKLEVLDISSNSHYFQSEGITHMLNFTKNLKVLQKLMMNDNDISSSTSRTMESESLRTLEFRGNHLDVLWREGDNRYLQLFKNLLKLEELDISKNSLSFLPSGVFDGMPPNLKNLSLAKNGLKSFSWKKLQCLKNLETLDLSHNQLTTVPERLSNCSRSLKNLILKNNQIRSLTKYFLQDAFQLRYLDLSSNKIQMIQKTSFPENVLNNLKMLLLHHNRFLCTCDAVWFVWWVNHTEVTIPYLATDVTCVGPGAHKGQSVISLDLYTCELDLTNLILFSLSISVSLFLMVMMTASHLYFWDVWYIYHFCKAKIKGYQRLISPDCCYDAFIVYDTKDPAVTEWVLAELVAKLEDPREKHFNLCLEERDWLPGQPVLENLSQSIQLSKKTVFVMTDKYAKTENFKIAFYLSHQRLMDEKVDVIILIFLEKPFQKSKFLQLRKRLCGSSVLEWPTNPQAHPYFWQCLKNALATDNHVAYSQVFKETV

## CCCCc1nc2c(N)nc3cc(CCCN4CCN(C(=O)CCOCCOCCOCCOCCOCCOCCOCCOCCOCCOCCOCCOCCOCCOCCOCCOCCOCCOCCOCCOCCOCCOCCOCCOCCNC(=O)CCOCCOCCOCCOCCNC(=O)O[C@H]5CC[C@@]6(C)C(=CC[C@H]7[C@@H]8CC[C@H]([C@H](C)CCCC(C)C)[C@@]8(C)CC[C@@H]76)C5)CC4)ccc3c2n1CC(C)(CO)CO [Compound 1, (3beta)-cholest-5-en-3-yl {91-[4-(3-{4-amino-2-butyl-1-[3-hydroxy-2-(hydroxymethyl)-2-methylpropyl]-1H-imidazo[4,5-c]quinolin-7-yl}propyl)piperazin-1-yl]-15,91-dioxo-3,6,9,12,19,22,25,28,31,34,37,40,43,46,49,52,55,58,61,64,67,70,73,76,79,82,85,88-octacosaoxa-16-azahennonacont-1-yl}carbamate]
S. pneumoniae serotype 3; 0.1 μg S. pneumoniae serotype 3-CRM197 antigen with adjuvant (2 nmol; AlPO4 100 μg), IM weeks 0 and 3, sera week 5
  OPA geometric mean titers (GMT): 833
S. pneumoniae serotype 3; S. pneumoniae serotype 3 antigen, versus aluminum phosphate and free TLR 7/8 agonist
  OPA geometric mean titers compared with reference adjuvants: higher average OPA geometric mean titers than aluminum phosphate, as well as the free TLR 7/8 agonist molecule
[1]
  EC50: 1360 nM
RSV A strain (M37); Study 1
  50% neutralizing antibody titers (nAb) to RSV, GMT: 7502
RSV A strain (M37); Study 2
  50% neutralizing antibody titers (nAb) to RSV, GMT: 5362
[2]
  EC50: 122 nM
